Measured values from ChEMBL document CHEMBL1141772, “Oxygenated terpenoids from a formosan soft coral Sinularia gibberosa” (2005).
Values after ≈ are worked out from the molar mass of the structure shown. Active and inactive are the calls of the source. The rule behind the calls is not given here.

What was measured:
KB = assay: Cytotoxicity against human KB cells by MTT assay; format: functional
[1] = Cytotoxicity against human HEPA 59T/VGH cells by MTT assay; format: functional; conditions: read-out: ED50 (the source's name)

SMILES	Activity (KB)	EC50 [1] [µg/mL]	EC50 (KB; read-out: ED50 (the source's name)) [µg/mL]
CC(C)[C@]12C=C3[C@](C)(O)CC[C@]3(OO1)[C@@H](C)CC2 (relative stereo) [PEROXYGIBBEROL]	inactive	8.2 (≈ 32.5 µM)	–
CC(=O)CC[C@@H]1C(=O)C=C(C(C)C)CC[C@@H]1C [GIBBERODIONE]	–	> 30	> 30
C=C1CC/C=C(\C)C[C@H](O)/C(C(C)C)=C\[C@H]2[C@H]1CC[C@]2(C)O [SARCOPHYTOL L]	inactive	12.6 (≈ 41.4 µM)	–
